From US12091411B2, “IRAK degraders and uses thereof” (Kymera Therapeutics, Inc., priority 2022, dated 2024)
Read-outs that look alike come from different tables or passages of the source.

Biological target: T1, IRAK4 (Homo sapiens, UniProt Q9NWZ3)
T1 construct: Degradation of IRAK4 in OCI-LY10 was quantitatively measured using Meso Scale Discovery technology; endogenous in cells; host or cells: OCI-LY10
T1 sequence (Q9NWZ3 1-460): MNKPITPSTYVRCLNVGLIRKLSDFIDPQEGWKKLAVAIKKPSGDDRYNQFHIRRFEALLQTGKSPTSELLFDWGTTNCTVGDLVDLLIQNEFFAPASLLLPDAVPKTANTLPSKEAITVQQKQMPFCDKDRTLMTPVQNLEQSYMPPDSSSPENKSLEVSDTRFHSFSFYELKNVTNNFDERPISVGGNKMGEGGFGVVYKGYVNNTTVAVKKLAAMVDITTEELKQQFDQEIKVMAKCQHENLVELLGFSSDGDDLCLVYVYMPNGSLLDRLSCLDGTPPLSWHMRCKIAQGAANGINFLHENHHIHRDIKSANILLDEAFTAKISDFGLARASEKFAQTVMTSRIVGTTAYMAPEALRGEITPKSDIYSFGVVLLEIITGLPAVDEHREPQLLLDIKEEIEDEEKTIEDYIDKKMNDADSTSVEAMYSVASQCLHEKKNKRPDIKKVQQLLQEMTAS
Experiment: IRAK4 MSD Degradation in OCI-LY10
Type: cell-based
Conditions: OCI-LY10 cells, MSD
How it was run: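 DC50, from a three-parameter logistic fit and reported as letter bins A (<0.01 μM), B, C, D (>0.2 μM or not tested), reflects IRAK4 loss measured by MSD electrochemiluminescence in OCI-LY10 lysates. Treatment: 8 doses, 1:3 steps, top 1 to 10 μM, 4 to 24 h, 37 °C.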

[1] = 4 hrs incubation, read-out: IRAK4 degradation in OCI-LY10 at 4 hrs: DC50
[2] = 24 hrs incubation, read-out: IRAK4 degradation in OCI-LY10 at 24 hrs: DC50

DC50 [1] [nM]	DC50 [2] [nM]	Structure (SMILES)
> 200	10 to 100	COc1cc2nn([C@H]3CC[C@H](CN4CC=C(c5ccc6c(c5)n(C)c(=O)n6C5CCC(=O)NC5=O)C(F)(F)C4)CC3)cc2cc1NC(=O)c1cccc(C(F)(F)F)n1 (some centres unmarked) [I-704]
> 200	10 to 100	COc1cc2nn([C@H]3CC[C@H](CN4CCC5(CC4)CC(N(C)c4cccc6c4C(=O)N(C4CCC(=O)NC4=O)C6=O)C5)CC3)cc2cc1NC(=O)c1cccc(C(F)(F)F)n1 (some centres unmarked) [I-141]
> 200	> 200	Cn1c(=O)n(C2CCC(=O)NC2=O)c2cccc(C3=CCN(C[C@H]4CC[C@H](n5cc6cc(NC(=O)c7cccc(C(F)(F)F)n7)c(C#N)cc6n5)CC4)CC3F)c21 (some centres unmarked) [I-458]
> 200	> 200	Cn1c(=O)n(C2CCC(=O)NC2=O)c2cccc(N3CCC(N4CCN(C[C@H]5CC[C@H](n6cc(NC(=O)c7cnn8ccc(N9C[C@H]%10C[C@@H]9CO%10)nc78)c(C(F)F)n6)CC5)CC4)CC3)c21 (some centres unmarked) [I-367]
> 200	> 200	COc1nc(NC(=O)c2cccc(C)n2)cc2cn([C@H]3CC[C@H](CN4CC[C@@H](c5cccc6c5n(C)c(=O)n6C5CCC(=O)NC5=O)[C@H](F)C4)CC3)nc12 (some centres unmarked) [I-775]
> 200	< 10	Cn1c(=O)n(C2CCC(=O)NC2=O)c2cccc(N3CCN(C[C@]4(O)CC[C@@H](n5cc6cc(NC(=O)c7cccc(C(F)(F)F)n7)ncc6n5)CC4)CC3)c21 (some centres unmarked) [I-677]
> 200	10 to 100	CN(C)c1ccn2ncc(C(=O)Nc3cn([C@H]4CC[C@H](CN(C)C5CCN(c6cccc7c6n(C)c(=O)n7C6CCC(=O)NC6=O)CC5(F)F)CC4)nc3C(F)F)c2n1 (some centres unmarked) [I-484]
> 200	> 200	Cn1c(=O)n(C2CCC(=O)NC2=O)c2cccc(C#CCOC3CCN(C[C@H]4CC[C@H](c5ccc(NC(=O)c6cnn7ccc(N8C[C@H]9C[C@@H]8CO9)nc67)c(C(F)F)n5)CC4)CC3)c21 (some centres unmarked) [I-181]
10 to 100	> 200	Cn1c(=O)n(C2CCC(=O)NC2=O)c2cccc(C#CCOC3CCN(C[C@H]4CC[C@H](n5cc(NC(=O)c6cnn7ccc(N8C[C@H]9C[C@@H]8CO9)nc67)c(C(F)(F)F)n5)CC4)CC3)c21 (some centres unmarked) [I-166]
> 200	< 10	CN(C[C@H]1CC[C@H](n2cc(NC(=O)c3cnn4ccc(N5CC(F)(F)C5)nc34)c(C(F)F)n2)CC1)C1CCN(c2cccc3c2n(C)c(=O)n3C2CCC(=O)NC2=O)CC1 (some centres unmarked) [I-276]
100 to 200	> 200	Cn1c(=O)n(C2CCC(=O)NC2=O)c2cccc(C#CCN3CC4COCC(C3)N4C[C@H]3CC[C@H](n4cc(NC(=O)c5cnn6ccc(N7C[C@H]8C[C@@H]7CO8)nc56)c(C(F)F)n4)CC3)c21 (some centres unmarked) [I-348]
10 to 100	> 200	Cn1c(=O)n(C2CCC(=O)NC2=O)c2cccc(C#CCN3CCN(C[C@H]4CC[C@H](n5cc(NC(=O)c6cnn7ccc(N8CC(C)(C)OC(C)(C)C8)nc67)c(C(F)F)n5)CC4)CC3)c21 (some centres unmarked) [I-352]
> 200	> 200	Cn1c(=O)n(C2CCC(=O)NC2=O)c2cccc([C@H]3C[C@](F)(CN4CCN(C[C@H]5CC[C@H](n6cc(NC(=O)c7cnn8ccc(N9C[C@H]%10CC9CO%10)nc78)c(C(F)F)n6)CC5)CC4)C3)c21 (some centres unmarked) [I-574]
> 200	> 200	Cn1c(=O)n(C2CCC(=O)NC2=O)c2cccc(C#CCOC3CCN(C[C@H]4CC[C@H](n5cc(NC(=O)c6ccn7ccc(N8C[C@H]9C[C@@H]8CO9)nc67)c(C(F)F)n5)CC4)CC3)c21 (some centres unmarked) [I-231]
> 200	> 200	Cn1c(=O)n(C2CCC(=O)NC2=O)c2ccc(N3CC(CO[C@@H]4CCN(CC5CCC(n6cc(NC(=O)c7cnn8ccc(N9C[C@H]%10C[C@@H]9CO%10)nc78)c(C(F)F)n6)CC5)C[C@@H]4F)C3)c(F)c21 (some centres unmarked) [I-725]
> 200	< 10	Cn1c(=O)n(C2CCC(=O)NC2=O)c2cccc(C#CCOC3CCN(C[C@H]4CC[C@H](n5cc(NC(=O)c6cnn7ccc(N8CCC(F)(F)CC8)nc67)c(C(F)F)n5)CC4)CC3)c21 (some centres unmarked) [I-433]
< 10	> 200	C[C@H]1C[C@@H](OCC#Cc2cccc3c2n(C)c(=O)n3C2CCC(=O)NC2=O)CCN1C[C@H]1CC[C@H](n2cc(NC(=O)c3cnn4ccc(N5C[C@H]6C[C@@H]5CO6)nc34)c(C(F)F)n2)CC1 (some centres unmarked) [I-29]
> 200	> 200	CN1CCN(c2ccn3ncc(C(=O)Nc4cn([C@H]5CC[C@H](CN6CCN(CC#Cc7cccc8c7n(C)c(=O)n8C7CCC(=O)NC7=O)CC6)CC5)nc4C(F)F)c3n2)CC1C(F)F (some centres unmarked) [I-411]
> 200	> 200	Cc1cccc(C(=O)Nc2ccc3nn([C@H]4CC[C@H](CN5CCC(c6cccc7c6n(C)c(=O)n7C6CCC(=O)NC6=O)C(F)(F)C5)CC4)cc3c2)n1 (some centres unmarked) [I-611]

DC50 [1] [nM]	DC50 [2] [nM]	Structure (SMILES)
> 200	> 200	Cn1c(=O)n(C2CCC(=O)NC2=O)c2cccc(N3CCN(CC4COC5(C4)CN(C[C@H]4CC[C@H](n6cc7cc(NC(=O)c8cccc(C(F)(F)F)n8)ccc7n6)CC4)C5)CC3)c21 (some centres unmarked) [I-661]
> 200	> 200	Cn1c(=O)n(C2CCC(=O)NC2=O)c2cccc(C#CCN3CCN(C[C@H]4CC[C@H](n5cc(NC(=O)c6cncc(C#N)c6)c(C(C)(C)O)n5)CC4)CC3)c21 (some centres unmarked) [I-267]
> 200	> 200	Cn1c(=O)n(C2CCC(=O)NC2=O)c2cccc(C[C@H]3CN(Cc4ccc(-n5cc(NC(=O)c6cnn7cccnc67)c(C(F)F)n5)cc4)CCO3)c21 (some centres unmarked) [I-382]
< 10	> 200	Cn1c(=O)n(C2CCC(=O)NC2=O)c2cccc(N3CCC(OC4CCN(C[C@H]5CC[C@H](n6cc(NC(=O)c7cnn8ccc(N9C[C@@H]%10C[C@H]9CO%10)nc78)c(C(F)F)n6)CC5)CC4)CC3)c21 (some centres unmarked) [I-159]
> 200	> 200	Cn1c(=O)n(C2CCC(=O)NC2=O)c2cccc(C#CCN3CCN(C[C@H]4CC[C@H](n5cc(NC(=O)c6cnn7ccc(OC8CCCCC8)nc67)c(C(F)F)n5)CC4)CC3)c21 (some centres unmarked) [I-246]
> 200	> 200	Cn1c(=O)n(C2CCC(=O)NC2=O)c2cccc(N3CC(C4CCN(C[C@H]5CC[C@H](n6cc(NC(=O)c7cnn8ccc(N9C[C@H]%10C[C@@H]9CO%10)nc78)c(C(F)F)n6)CC5)CC4(F)F)C3)c21 (some centres unmarked) [I-761]
> 200	> 200	Cn1c(=O)n(C2CCC(=O)NC2=O)c2cccc(C#CCN3CCC(C[C@H]4CC[C@H](n5cc(NC(=O)c6cnn7ccc(N8C[C@H]9C[C@@H]8CO9)nc67)c(C(F)F)n5)CC4)CC3)c21 (some centres unmarked) [I-757]
> 200	< 10	CN1CCN(c2ccn3ncc(C(=O)Nc4cn([C@H]5CC[C@H](CN6CCN(CC#Cc7cccc8c7n(C)c(=O)n8C7CCC(=O)NC7=O)CC6)CC5)nc4C(F)F)c3n2)CC1 (some centres unmarked) [I-300]
> 200	< 10	Cn1c(=O)n(C2CCC(=O)NC2=O)c2cccc(OC3CCN([C@H]4CC[C@H](n5cc6cc(NC(=O)c7cccc(C(F)(F)F)n7)ncc6n5)CC4)CC3)c21 (some centres unmarked) [I-740]
> 200	< 10	CO[C@]1(CN2CCN(C[C@H]3CC[C@H](n4cc(NC(=O)c5cnn6ccc(N7C[C@H]8C[C@@H]7CO8)nc56)c(C(F)F)n4)CC3)CC2)C[C@@H](c2cccc3c2n(C)c(=O)n3C2CCC(=O)NC2=O)C1 (some centres unmarked) [I-729]
< 10	> 200	Cn1c(=O)n(C2CCC(=O)NC2=O)c2cccc([C@H]3C[C@H](CN4CCN(C[C@H]5CC[C@H](n6cc(NC(=O)c7cnn8ccc(N9C[C@H]%10C[C@@H]9CO%10)nc78)c(C(F)F)n6)CC5)CC4)C3)c21 (some centres unmarked) [I-79]
> 200	> 200	Cn1c(=O)n(C2CCC(=O)NC2=O)c2cccc([C@H]3CCN(C[C@H]4CC[C@H](n5cc6cc(NC(=O)c7cccc(C#N)n7)ccc6n5)CC4)C[C@H]3F)c21 (some centres unmarked) [I-627]
> 200	> 200	COc1cc2nn([C@H]3CC[C@H](CN4CC=C(c5cccc6c(N7CCC(=O)NC7=O)cncc56)C(F)(F)C4)CC3)cc2cc1NC(=O)c1cccc(C(F)(F)F)n1 [I-466]
> 200	< 10	Cn1c(=O)n(C2CCC(=O)NC2=O)c2cccc(OC3CCN([C@H]4CC[C@H](n5cc(NC(=O)c6cnn7ccc(N8C[C@H]9C[C@@H]8CO9)nc67)c(C(F)F)n5)CC4)CC3)c21 (some centres unmarked) [I-739]
> 200	> 200	CC1CCN(c2ccn3ncc(C(=O)Nc4cn([C@H]5CC[C@H](CN(C)C6CCN(c7cccc8c7n(C)c(=O)n8C7CCC(=O)NC7=O)CC6(F)F)CC5)nc4C(F)F)c3n2)CC1 (some centres unmarked) [I-520]
> 200	> 200	Cn1c(=O)n(C2CCC(=O)NC2=O)c2cccc([C@H]3C[C@H](OC4CCN(C[C@H]5CC[C@H](n6cc(NC(=O)c7cnn8ccc(N9C[C@H]%10C[C@@H]9CO%10)nc78)c(C(F)F)n6)CC5)CC4)C3)c21 (some centres unmarked) [I-82]
> 200	< 10	Cn1c(=O)n(C2CCC(=O)NC2=O)c2cccc(N3CCN(CC4COC5(C4)CN(C[C@H]4CC[C@H](n6cc(NC(=O)c7cnn8ccc(N9C[C@H]%10C[C@@H]9CO%10)nc78)c(C(F)F)n6)CC4)C5)CC3)c21 (some centres unmarked) [I-660]
> 200	> 200	CN(Cc1ccc(-n2cc(NC(=O)c3cnn4cccnc34)c(C(F)F)n2)cc1)C1CCN(c2cccc3c2n(C)c(=O)n3C2CCC(=O)NC2=O)CC1(F)F (centres unmarked) [I-377]
